Results published in the supplement of paper PMC10307832.

Columns and labels:
Test in all cases: relative viability (nuclei count vs DMSO), 5 days (fraction); higher = more cells survive
Daporinad + Lapatinib = compound: O=C(/C=C/c1cccnc1)NCCCCC1CCN(C(=O)c2ccccc2)CC1 [Daporinad] + CS(=O)(=O)CCNCc1ccc(-c2ccc3ncnc(Nc4ccc(OCc5cccc(F)c5)c(Cl)c4)c3c2)o1 [Lapatinib] (partner 2 µM)
Method in brief: (§1)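 Lung cancer cell lines, seeded in 1536-well plates, were treated the following day by pin tool with a single drug or with five library-drug doses (not always all listed) in √10 steps on top of a fixed anchor-drug dose. Cells were fixed and nuclei stained in one step after 5 days, and nuclei were counted. Relative viability is the nuclei count for treated wells divided by that for vehicle wells, reported as medians of duplicate plates.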

R406 + Pictilisib = compound: COc1cc(Nc2ncc(F)c(Nc3ccc4c(n3)NC(=O)C(C)(C)O4)n2)cc(OC)c1OC [R406] + CS(=O)(=O)N1CCN(Cc2cc3nc(-c4cccc5[nH]ncc45)nc(N4CCOCC4)c3s2)CC1 [Pictilisib] (partner 1 µM)
Method in brief: as §1

R406 + Trametinib = compound: COc1cc(Nc2ncc(F)c(Nc3ccc4c(n3)NC(=O)C(C)(C)O4)n2)cc(OC)c1OC [R406] + CC(=O)Nc1cccc(-n2c(=O)n(C3CC3)c(=O)c3c(Nc4ccc(I)cc4F)n(C)c(=O)c(C)c32)c1 [Trametinib] (partner 0.02 µM)
Method in brief: as §1

Daporinad + Olaparib = compound: O=C(/C=C/c1cccnc1)NCCCCC1CCN(C(=O)c2ccccc2)CC1 [Daporinad] + O=C(c1cc(Cc2n[nH]c(=O)c3ccccc23)ccc1F)N1CCN(C(=O)C2CC2)CC1 [Olaparib] (partner 8 µM)
Method in brief: as §1

UMC-11
relative viability (Daporinad + Lapatinib; first compound 0.0005 µM): 0.995 | relative viability (Daporinad + Lapatinib; first compound 0.001581 µM): 1.06 | relative viability (Daporinad + Lapatinib; first compound 0.005 µM): 1.08 | relative viability (Daporinad + Lapatinib; first compound 0.01581 µM): 1.24 | relative viability (R406 + Pictilisib; first compound 0.08 µM): 0.864 | relative viability (R406 + Pictilisib; first compound 0.253 µM): 1.07 | relative viability (R406 + Pictilisib; first compound 0.8 µM): 0.863 | relative viability (R406 + Pictilisib; first compound 2.53 µM): 0.568 | relative viability (R406 + Pictilisib; first compound 8 µM): 0.369 | relative viability (R406 + Trametinib; first compound 0.08 µM): 0.724 | relative viability (R406 + Trametinib; first compound 0.253 µM): 0.959 | relative viability (R406 + Trametinib; first compound 0.8 µM): 0.776 | relative viability (R406 + Trametinib; first compound 2.53 µM): 0.874 | relative viability (R406 + Trametinib; first compound 8 µM): 0.482 | relative viability (Daporinad + Olaparib; first compound 0.0005 µM): 0.294 | relative viability (Daporinad + Olaparib; first compound 0.001581 µM): 0.339 | relative viability (Daporinad + Olaparib; first compound 0.005 µM): 0.343 | relative viability (Daporinad + Olaparib; first compound 0.01581 µM): 0.309
